Measured values published in patent US20210378246A1, “COMPOSITIONS COMPRISING HALAUXIFEN AND OTHER HERBICIDES AND METHODS THEREOF” (DOW AGROSCIENCES LLC, priority 2018, published 2021).
Several values for one entry are separate records, joined by “and”; a condition that tells them apart may be missing. Equal values may be shown once.

Columns and labels:
Test in all cases: Greenhouse post-emergence weed control, visual score 0-100 percent
Assay type in all cases: in vivo
[1] = system: Chenopodium album L. (common lambsquarters, CHEAL)
Excerpt: (§1) Results in Examples are greenhouse trial results.
(§2) Seeds or nutlets of the desired test plant species were planted in a soil matrix prepared by mixing a loam or sandy loam soil (e.g., 28.6 percent silt, 18.8 percent clay, and 52.6 percent sand, with a pH of about 5.8 and an organic matter content of about 1.8 percent) and calcareous grit in an 80 to 20 ratio. The soil matrix was contained in plastic pots with a volume of 1 quart and a surface area of 83.6 cm2. When required to ensure good germination and healthy plants, a fungicide treatment and/or other chemical or physical treatment was applied. The plants were grown for 8-22 days in a greenhouse with an approximate 14 h photoperiod which was maintained at about 29° C. during the day and 26° C. during the night. Nutrients (Peters Excel® 15-5-15 5-Ca 2-Mg and iron chelate) were applied in the irrigation solution as needed and water was added on a regular basis. Supplemental lighting was provided with overhead metal halide 1000-Watt lamps as necessary. The plants were employed for testing when they reached the first through fourth true leaf stage.
(§3) Treatments comprised of the acid or esters of halauxifen-methyl (methyl 4-amino-3-chloro-6-(4-chloro-2-fluoro-3-methoxyphenyl)picolinate), each formulated as an SC (suspension concentrate), and various herbicidal components alone and in combination. A form of the compound of Formula I were applied on an acid equivalent basis.
(§4) Treatment requirements were calculated based upon the rates being tested, the concentration of active ingredient or acid equivalent in the formulation, and a 12 mL application volume at a rate of 187 L/ha.
(§5) For treatments comprised of formulated and technical compounds, weighed amounts of the technical materials were placed individually in 25 mL glass vials and dissolved in a volume of 97:3 v/v acetone/DMSO to obtain 12× stock solutions, and measured amounts of the formulated compounds were placed individually in 25 mL glass vials and diluted in a volume of 1.5% (v/v) crop oil concentrate or water to obtain 12× stock solutions. […] As required, additional water and/or 97:3 v/v acetone/DMSO was added to individual application solutions so that the final acetone and DMSO concentrations of the application solutions being compared were 8.1% and 0.25%, respectively.
(§6) All stock solutions and applications solutions were visually inspected for compound compatibility prior to application. Spray solutions were applied to the plant material with an overhead Mandel track sprayer equipped with an 8002E nozzle calibrated to deliver 187 L/ha over an application area of 0.503 m2 at a spray height of 18 to 20 inches (46 to 50 cm) above average plant canopy height. Control plants were sprayed in the same manner with the solvent blank.
The treated plants and control plants were placed in a greenhouse as described above and watered by sub-irrigation to prevent wash-off of the test compounds. […], the condition of the test plants as compared with that of the untreated plants was determined visually and scored on a scale of 0 to 100 percent where 0 corresponds to no injury or growth inhibition and 100 corresponds to complete kill.

[2] = system: Polygonum convolvulus L. (wild buckwheat, POLCO)
Excerpt: as §1, §2, §3, §4, §5, §6
(§7) The treated plants and control plants were placed in a greenhouse as described above and watered by sub-irrigation to prevent wash-off of the test compounds. After approximately […], the condition of the test plants as compared with that of the untreated plants was determined visually and scored on a scale of 0 to 100 percent where 0 corresponds to no injury or growth inhibition and 100 corresponds to complete kill.

[3] = system: Amaranthus rudis Sauer, (common waterhemp, AMATA); details: 7 DAA
Excerpt: as §1, §2, §3, §4, §5, §6, §7

[4] = system: Abutilon theophrasti Medik. (velvetleaf, ABUTH)
Excerpt: as §1, §2, §3, §4, §5, §6, §7

[5] = system: Sinapis arvensis L. (wild mustard, SINAR)
Excerpt: as §1, §2, §3, §4, §5, §6, §7

With COC(=O)c1nc(-c2ccc(Cl)c(OC)c2F)cc(N)c1Cl [Chemical 1, methyl 4-amino-3-chloro-6-(4-chloro-2-fluoro-3-methoxyphenyl)picolinate] the “Chemical 1 Mean % Weed Control” value ([1]; 7 DAA, alone at 1 gae/ha) was 28.75%, the “Chemical 1 Mean % Weed Control” value ([1]; 7 DAA, alone at 2 gae/ha) was 56.25% and the “Chemical 1 Mean % Weed Control” value ([1]; 7 DAA, alone at 4 gae/ha) was 56.25%. The “Chemical 1 Mean % Weed Control” value ([1]; 14 DAA, alone at 1 gae/ha) was 33.33% and 40%, the “Chemical 1 Mean % Weed Control” value ([1]; 14 DAA, alone at 2 gae/ha) was 60% and the “Chemical 1 Mean % Weed Control” value ([1]; 14 DAA, alone at 4 gae/ha) was 62.5% and 63.33%. For the same compound, the “Chemical 1 Mean % Weed Control” value ([1]; 17 DAA, alone at 1 gae/ha) was 40%, the “Chemical 1 Mean % Weed Control” value ([1]; 17 DAA, alone at 2 gae/ha) was 53.75% and the “Chemical 1 Mean % Weed Control” value ([1]; 17 DAA, alone at 4 gae/ha) was 62.5%. The “Chemical 1 Mean % Weed Control” value ([2]; 7 DAA, alone at 1 gae/ha) was 2.5%, the “Chemical 1 Mean % Weed Control” value ([2]; 7 DAA, alone at 2 gae/ha) was 11.25% and the “Chemical 1 Mean % Weed Control” value ([2]; 7 DAA, alone at 4 gae/ha) was 28.75%. The “Chemical 1 Mean % Weed Control” value ([2]; 14 DAA, alone at 2 gae/ha) was 0%, the “Chemical 1 Mean % Weed Control” value ([2]; 14 DAA, alone at 4 gae/ha) was 20% and the “Chemical 1 Mean % Weed Control” value ([2]; 21 DAA, alone at 1 gae/ha) was 0%. For the same compound, the “Chemical 1 Mean % Weed Control” value ([2]; 21 DAA, alone at 2 gae/ha) was 6.25%, the “Chemical 1 Mean % Weed Control” value ([2]; 21 DAA, alone at 4 gae/ha) was 17.5% and the “Chemical 1 Mean % Weed Control” value ([3]; alone at 2 gae/ha) was 70.5%. For the same compound, the “Chemical 1 Mean % Weed Control” value ([3]; alone at 4 gae/ha) was 73%, the “Chemical 1 Mean % Weed Control” value ([4]; 7 DAA, alone at 1 gae/ha) was 81.25% and the “Chemical 1 Mean % Weed Control” value ([4]; 7 DAA, alone at 2 gae/ha) was 81.25%. The “Chemical 1 Mean % Weed Control” value ([4]; 7 DAA, alone at 4 gae/ha) was 84.5%, the “Chemical 1 Mean % Weed Control” value ([4]; 14 DAA, alone at 2 gae/ha) was 87.25% and the “Chemical 1 Mean % Weed Control” value ([5]; 14 DAA, alone at 4 gae/ha) was 0%. For the same compound, the “Chemical 1 Mean % Weed Control” value ([5]; 21 DAA, alone at 1 gae/ha) was 1.25%.
CCCCCCC(C)OC(=O)COc1nc(F)c(Cl)c(N)c1Cl (stereo not drawn) [Chemical 3, 1-methytheptyl 2-[(4-amino-3,5-dichloro-6-fluoro-2-pyridinyl)oxy]acetate] was tested, and the “Chemical 3 Mean % Weed Control” value ([1]; 7 DAA, alone at 8.8 gae/ha) was 0%, the “Chemical 3 Mean % Weed Control” value ([1]; 7 DAA, alone at 17.S gae/ha) was 0% and the “Chemical 3 Mean % Weed Control” value ([1]; 7 DAA, alone at 17.5 gae/ha) was 0%. The “Chemical 3 Mean % Weed Control” value ([1]; 7 DAA, alone at 35 gae/ha) was 0%, the “Chemical 3 Mean % Weed Control” value ([1]; 7 DAA, alone at 70 gae/ha) was 10% and the “Chemical 3 Mean % Weed Control” value ([1]; 14 DAA, alone at 8.8 gae/ha) was 0%. For the same compound, the “Chemical 3 Mean % Weed Control” value ([1]; 14 DAA, alone at 17.5 gae/ha) was 10% and 5%, the “Chemical 3 Mean % Weed Control” value ([1]; 14 DAA, alone at 35 gae/ha) was 5% and 3.75% and 1.75% and the “Chemical 3 Mean % Weed Control” value ([1]; 14 DAA, alone at 70 gae/ha) was 31.25% and 35%. The “Chemical 3 Mean % Weed Control” value ([1]; 17 DAA, alone at 8.8 gae/ha) was 0%, the “Chemical 3 Mean % Weed Control” value ([1]; 17 DAA, alone at 17.5 gae/ha) was 8.75% and the “Chemical 3 Mean % Weed Control” value ([1]; 17 DAA, alone at 35 gae/ha) was 3.75%. For the same compound, the “Chemical 3 Mean % Weed Control” value ([1]; 17 DAA, alone at 70 gae/ha) was 38.75%, the “Chemical 3 Mean % Weed Control” value ([2]; 7 DAA, alone at 8.6 gae/ha) was 52.5% and the “Chemical 3 Mean % Weed Control” value ([2]; 7 DAA, alone at 8.8 gae/ha) was 52.5%. The “Chemical 3 Mean % Weed Control” value ([2]; 7 DAA, alone at 17.5 gae/ha) was 47.5%, the “Chemical 3 Mean % Weed Control” value ([2]; 14 DAA, alone at 8.8 gae/ha) was 12.5% and the “Chemical 3 Mean % Weed Control” value ([2]; 14 DAA, alone at 17.5 gae/ha) was 62.25%. The “Chemical 3 Mean % Weed Control” value ([2]; 21 DAA, alone at 8.8 gae/ha) was 0%, the “Chemical 3 Mean % Weed Control” value ([3]; alone at 8.8 gae/ha) was 0% and the “Chemical 3 Mean % Weed Control” value ([3]; alone at 17.5 gae/ha) was 3.75%. For the same compound, the “Chemical 3 Mean % Weed Control” value ([3]; alone at 35 gae/ha) was 3.75%, the “Chemical 3 Mean % Weed Control” value ([4]; 7 DAA, alone at 8.8 gae/ha) was 15% and the “Chemical 3 Mean % Weed Control” value ([4]; 7 DAA, alone at 17.5 gae/ha) was 28.75%. For the same compound, the “Chemical 3 Mean % Weed Control” value ([4]; 7 DAA, alone at 35 gae/ha) was 67.5%, the “Chemical 3 Mean % Weed Control” value ([4]; 7 DAA, alone at 70 gae/ha) was 75.5% and the “Chemical 3 Mean % Weed Control” value ([4]; 14 DAA, alone at 8.8 gae/ha) was 2.5%. The “Chemical 3 Mean % Weed Control” value ([4]; 14 DAA, alone at 17.5 gae/ha) was 20%, the “Chemical 3 Mean % Weed Control” value ([4]; 14 DAA, alone at 35 gae/ha) was 67% and the “Chemical 3 Mean % Weed Control” value ([4]; 14 DAA, alone at 70 gae/ha) was 70%. The “Chemical 3 Mean % Weed Control” value ([5]; 14 DAA, alone at 35 gae/ha) was 63.75% and the “Chemical 3 Mean % Weed Control” value ([5]; 21 DAA, alone at 17.5 gae/ha) was 54.25%.
